{"source": "patent US20240166627A1", "about": "“Terpyridinedione compound or salt thereof, and preparation method and application thereof” (SHENZHEN SALUBRIS PHARMACEUTICALS CO., LTD., priority 2021, published 2024)", "key": {"[1]": {"experiment": "Pharmacokinetic experiment in Beagle dogs (IV and PO)", "assay_type": "in vivo", "conditions": "male, dog, plasma, PO 5 mg/kg", "text": "Polyethylene glycol 400 (batch number: GORKREUT, Saen Chemical Technology (Shanghai) Co., Ltd.); DMSO (batch number: 20200319, GHTECH (Guangdong) Co., Ltd.); and normal saline (batch number: C20052604, Jiangxi Kelun Pharmaceutical Co., Ltd.). An LC-MS instrument (Thermo Fisher Ultimate 3000 UPLC, TSQ QUANTUM ULTRA TSQ Quantum GC).\n5 male Beagle dogs with weights being 5 kg to 7 kg, purchased from Beijing Mars Biotechnology Co., Ltd. […]\nAfter the above mixture is given to the dogs through intragastric administration (n=3) or intravenous administration (n=2), about 1 mL of blood is collected from the forelimb or hindlimb vein with a scalp needle, respectively, at 5 min (intravenous administration only), 15 min, 30 min, 1 h, 2 h, 4 h, 6 h, 8 h, 24 h to put into blood collection tubes containing EDTA-K2 anticoagulant; centrifugation is performed for 10 min at 4000 rpm to separate plasma; and then the tubes are stored at −80° C. for testing.\nA certain amount of a test sample is accurately weighted and dissolved with DMSO to 2 mg/mL, as a stock solution. The stock solution is diluted to 30000, 10000, 3000, 1000, 300, 100, 50, 30, and 10 ng/mL by using acetonitrile:water (1:1), to obtain standard curve working solutions. 5 μL of the working solution is added to 45 μL of blank canine plasma; and well mixing is performed through vortex, to prepare into standard curve samples equivalent to plasma concentrations of 3000, 1000, 300, 100, 30, 10, 5, 3, and 1 ng/mL. 30 μL of the standard curve sample and the collected plasma sample (plasma collected at 5 min, 15 min, and 30 min of intravenous administration is diluted 5-fold) are added to 150 μL of a propranolol acetonitrile solution (internal standard, 50 ng/mL) to precipitate protein, then 100 μL of water is added to well mix through vortex; centrifugation is performed for 5 min at 4000 rpm; and supernatant is taken for LC-MS analysis. LC-MS detection conditions include the following.\nChromatographic column: Waters ACQUITY™ PREMIER HSS T3, 50*2.1 mm, 1.8 μm.\nMobile phase A: water (0.1% formic acid); mobile phase B: acetonitrile; flow rate: 0.5 mL/min; and gradient elution is shown in Table 3 below.\nAfter LC-MS detection of blood drug concentration, and a non-compartment model of WinNonlin 6.1 software is adopted to calculate pharmacokinetic parameters of beagle dogs after administration."}, "p38α/MK2 complex": {"target": "p38α/MK2 complex (Homo sapiens, UniProt P49137+Q16539)", "sequence (Q16539 whole entry)": "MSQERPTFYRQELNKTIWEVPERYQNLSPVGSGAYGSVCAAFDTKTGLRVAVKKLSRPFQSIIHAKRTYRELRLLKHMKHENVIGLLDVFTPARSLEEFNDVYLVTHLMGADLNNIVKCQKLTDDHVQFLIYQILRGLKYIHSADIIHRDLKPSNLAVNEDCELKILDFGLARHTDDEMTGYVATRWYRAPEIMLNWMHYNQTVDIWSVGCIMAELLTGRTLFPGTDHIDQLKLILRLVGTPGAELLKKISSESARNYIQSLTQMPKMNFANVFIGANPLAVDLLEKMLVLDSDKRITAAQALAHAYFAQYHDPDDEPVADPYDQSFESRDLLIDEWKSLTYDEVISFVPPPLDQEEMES", "sequence (P49137 whole entry)": "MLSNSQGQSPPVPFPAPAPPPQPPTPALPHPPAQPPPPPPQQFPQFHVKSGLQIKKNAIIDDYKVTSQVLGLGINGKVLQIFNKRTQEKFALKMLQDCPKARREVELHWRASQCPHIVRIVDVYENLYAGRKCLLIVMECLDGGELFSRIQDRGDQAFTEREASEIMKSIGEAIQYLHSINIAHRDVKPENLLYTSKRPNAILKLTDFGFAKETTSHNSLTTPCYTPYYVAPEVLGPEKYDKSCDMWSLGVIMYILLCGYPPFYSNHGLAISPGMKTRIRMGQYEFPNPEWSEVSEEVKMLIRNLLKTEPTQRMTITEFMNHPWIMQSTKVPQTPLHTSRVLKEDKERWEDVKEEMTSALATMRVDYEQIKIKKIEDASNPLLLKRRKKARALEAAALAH", "experiment": "p38α/MK2 complex kinase screening experiment (IMAP FP)", "assay_type": "biochemical", "conditions": "p38α 0.2 nM, MK2 unactive 1 nM, HSP27 substrate 1 μM, ATP 10 μM; read-out: IC50 value that the compound inhibits p38α/MK2 complex", "procedure": "A certain amount of a drug is weighted and prepared into a 10 mM of mother solution by using DMSO; the mother solution is diluted to 100 μM (100× working solution) in two steps; and then, the solution is diluted 3-fold to 33.33 μM, 11.11 μM, 3.70 μM, 1.23 μM, 0.41 μM, 0.14 μM, 0.046 μM, 0.015 μM, and 0.005 μM, successively. DMSO control is also arranged.\nThen, a series of diluted DMSO drugs are diluted 25 folds with 1×IMAP Reaction Buffer as a 4× drug working solution.\n10 gradient concentrations and 2 duplicated wells are set to each group of compounds; and a DMSO control group and a negative control group (DMSO, no ATP) are additionally set.\n• c), after 1 h of incubation at room temperature, 1× Progressive Binding Solution is added to end the enzymatic reaction; after 30 min of incubation, a BMGPHERASTER FSX multifunctional microplate reader is used to detect a Fluorescence Polarization (FP) signal [FP(Ex485/Em520/Em520 nm)]."}}, "data": [{"smiles": "Cc1cnc(-n2cccc(C(C)(C)O)c2=O)cc1-n1c(C)cc(OCc2ncc(F)cc2F)c(Cl)c1=O", "note": "[Comparative example 1]", "values": [{"measurement": "AUC(0-t)", "setting": "[1]", "value": 32900, "unit": "ng·h/mL"}, {"measurement": "Cmax", "setting": "[1]", "value": 5550, "unit": "ng/mL"}, {"measurement": "IC50", "setting": "p38α/MK2 complex", "value": 2.6, "unit": "nM"}]}]}
